From ChEMBL document CHEMBL4622935, “Novel anticancer drug curaxin CBL0137 impairs DNA methylation by eukaryotic DNA methyltransferase Dnmt3a” (Bioorg Med Chem Lett, 2020)

Legend:
[1] = target: DNA (cytosine-5)-methyltransferase 3A (Homo sapiens, UniProt Q9Y6K1); experiment: Binding affinity to DNMT3A catalytic domain (unknown origin) assessed as inhibition of enzyme-mediated DNA methylation preincubated for 1 hr followed by enzyme addition measured after 1 hr in presence of AdoMet by PAGE analysis
[2] = target: T1, DNA (cytosine-5)-methyltransferase 3A (Mus musculus, UniProt O88508); experiment: Inhibition of murine DNMT3A catalytic domain-mediated DNA methylation using 5'-6FAM-tagged 30-mer duplex DNA (17 AT bp) as substrate preincubated for 30 mins followed by enzyme addition
[3] = target: DNA (cytosine-5)-methyltransferase 3A (Mus musculus) (UniProt O88508); experiment: Inhibition of murine DNMT3A catalytic domain-mediated DNA methylation using 5'-6FAM-tagged 30-mer duplex DNA (17 AT bp) as substrate at 60 uM preincubated for 30 mins followed by enzyme addition relative to control
DNA [4] = experiment: Binding affinity to 5'-6FAM-tagged 30-mer duplex DNA (17 AT bp) (unknown origin) assessed as dissociation constant for complound-DNA complex by fluorescence polarization assay; format: nucleic-acid assay
DNA [5] = experiment: Binding affinity to 5'-6FAM-tagged 30-mer duplex DNA (22 AT bp) (unknown origin) assessed as dissociation constant for complound-DNA complex by fluorescence polarization assay; format: nucleic-acid assay
[6] = target: T1, DNA (cytosine-5)-methyltransferase 3A; experiment: Inhibition of murine DNMT3A catalytic domain-mediated DNA methylation using 5'-6FAM-tagged 30-mer duplex DNA (22 AT bp) as substrate preincubated for 30 mins followed by enzyme addition
[7] = target: DNA (cytosine-5)-methyltransferase 3A (Mus musculus) (UniProt O88508); experiment: Binding affinity to murine DNMT3A catalytic domain assessed as fold reduction in compound fluorescence at 5 uM by dialysis method relative to control
[8] = target: DNA (cytosine-5)-methyltransferase 3A (Mus musculus) (UniProt O88508); experiment: Inhibition of murine DNMT3A catalytic domain-mediated DNA methylation using 5'-6FAM-tagged 30-mer duplex DNA (22 AT bp) as substrate at 60 uM preincubated for 30 mins followed by enzyme addition relative to control

DNA (cytosine-5)-methyltransferase 3A (Homo sapiens, UniProt Q9Y6K1), sequence (Q9Y6K1 whole entry, looked up, the tested form may be a part): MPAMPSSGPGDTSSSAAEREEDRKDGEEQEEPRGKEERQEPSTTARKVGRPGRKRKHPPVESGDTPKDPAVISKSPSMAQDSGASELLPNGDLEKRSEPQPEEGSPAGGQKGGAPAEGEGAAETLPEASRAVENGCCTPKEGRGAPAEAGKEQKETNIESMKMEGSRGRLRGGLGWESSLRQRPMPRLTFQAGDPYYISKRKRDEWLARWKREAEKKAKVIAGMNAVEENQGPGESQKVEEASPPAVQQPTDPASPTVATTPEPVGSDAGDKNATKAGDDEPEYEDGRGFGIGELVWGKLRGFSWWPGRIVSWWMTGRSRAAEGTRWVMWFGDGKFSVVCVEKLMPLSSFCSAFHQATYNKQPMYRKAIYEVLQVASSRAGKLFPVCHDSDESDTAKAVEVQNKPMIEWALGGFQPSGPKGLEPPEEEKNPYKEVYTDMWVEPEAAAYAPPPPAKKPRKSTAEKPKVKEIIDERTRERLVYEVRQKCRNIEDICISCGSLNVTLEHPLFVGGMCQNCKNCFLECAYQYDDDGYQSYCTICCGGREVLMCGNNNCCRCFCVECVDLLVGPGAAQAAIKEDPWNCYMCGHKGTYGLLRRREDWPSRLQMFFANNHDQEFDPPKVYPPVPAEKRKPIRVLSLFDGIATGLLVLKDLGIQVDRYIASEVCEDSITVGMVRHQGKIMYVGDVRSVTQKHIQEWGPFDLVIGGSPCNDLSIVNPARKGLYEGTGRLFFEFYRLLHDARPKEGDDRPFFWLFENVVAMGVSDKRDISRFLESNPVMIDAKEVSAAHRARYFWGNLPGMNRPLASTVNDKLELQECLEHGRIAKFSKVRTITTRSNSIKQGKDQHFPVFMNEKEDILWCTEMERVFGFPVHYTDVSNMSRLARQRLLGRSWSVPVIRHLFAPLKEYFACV

| IC50 [2] | inhibition [3] | Kd (DNA [4]) | Kd (DNA [5]) | IC50 [6] | fold change (FC) [7] | inhibition [8] | Structure (SMILES) | IC50 [1] |
| --- | --- | --- | --- | --- | --- | --- | --- | --- |
| – | – | – | – | – | – | – | CCC1/C=C/C=C/C[C@H](C)[C@@H](O)[C@](C)(O)C(=O)[C@@H](C)[C@H](O)[C@@H](C)C(=O)[C@H](C)[C@@H](O)[C@H](C)/C=C/C(=O)OC2[C@@H](C)C(CC1)OC1(CC[C@@H](C)C(C[C@H](C)O)O1)[C@@H]2C (stereo not given in full) | 6 µM |
| 3 µM | 70% | – | – | – | – | – | COc1cccc2c1C(=O)c1c(O)c3c(c(O)c1C2=O)C[C@@](O)(C(=O)CO)C[C@@H]3O[C@H]1C[C@H](N)[C@H](O)[C@H](C)O1 [DOXORUBICIN] | – |
| 9 µM | 80% | 20 µM | 34 µM | 5 µM | 20 | 51% | CC(=O)c1ccc2c(c1)c1cc(C(C)=O)ccc1n2CCNC(C)C | – |
